Results taken from US20230272029A1, “CO-AGONISTS AT GLP-1 AND GIP RECEPTORS SUITABLE FOR ORAL DELIVERY” (Novo Nordisk A/S, priority 2020, published 2023).
Marks after values point to notes of the source that are not given here. Starred links: 1 amine or outer side, 2 acyl side, 3 side chain; linkers in the order of their positions; H or OH if unused. Non-standard residues stand in square brackets, D forms with d. Residues, ends and D or L forms follow the SMILES beside them. Groups on a side chain read outwards from the residue. *: point of attachment. C18 diacid = O=C(O)CCCCCCCCCCCCCCCCC(=O)*; γGlu = O=C(O)[C@H](CCC(=O)[*:2])N[*:1]; εLys = N[C@@H](CCCCN[*:1])C(=O)[*:2]; Aib = CC(C)(N)C(=O)O

Experiment: Pharmacokinetic study in dogs after oral dosing of tablets with SNAC
Type: in vivo, Beagle dogs
Conditions: dog, in vivo, po
Summary of the method: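 Male beagle dogs were fasted and given a single oral tablet containing 3-4 mg test substance with 100-300 mg SNAC, in groups of 6-8. Plasma from serial EDTA blood samples was analysed by LC-MS, and t1/2, Cmax/D, tmax and AUC/D were obtained by non-compartmental analysis.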

Compound | Cmax/Dose | AUC/Dose [kg·h/L]
CC[C@H](C)[C@H](NC(=O)[C@H](Cc1ccccc1)NC(=O)[C@H](CCC(=O)O)NC(=O)[C@H](CCCNC(=N)N)NC(=O)[C@H](C)NC(=O)[C@H](C)NC(=O)[C@H](CCC(N)=O)NC(=O)[C@H](CCCCNC(=O)[C@@H](N)CCCCNC(=O)[C@@H](N)CCCCNC(=O)CC[C@H](NC(=O)CCCCCCCCCCCCCCCCC(=O)O)C(=O)O)NC(=O)[C@H](CCC(=O)O)NC(=O)[C@H](CC(C)C)NC(=O)[C@H](CC(C)C)NC(=O)[C@@H](NC(=O)[C@H](CO)NC(=O)[C@H](Cc1ccc(O)cc1)NC(=O)[C@H](CC(=O)O)NC(=O)[C@H](CO)NC(=O)[C@@H](NC(=O)[C@H](Cc1ccccc1)NC(=O)[C@@H](NC(=O)CNC(=O)[C@H](CCC(=O)O)NC(=O)C(C)(C)NC(=O)[C@@H](N)Cc1ccc(O)cc1)[C@@H](C)O)[C@@H](C)O)[C@@H](C)CC)C(=O)N[C@@H](CCC(=O)O)C(=O)N[C@@H](Cc1c[nH]c2ccccc12)C(=O)N[C@@H](CC(C)C)C(=O)N[C@@H](CC(C)C)C(=O)N[C@@H](C)C(=O)NCC(=O)NCC(=O)N1CCC[C@H]1C(=O)N[C@@H](CO)C(=O)N[C@@H](CO)C(=O)NCC(=O)N[C@@H](C)C(=O)N1CCC[C@H]1C(=O)N1CCC[C@H]1C(=O)N1CCC[C@H]1C(=O)N[C@@H](CO)C(=O)O [Compound No. 31] (H-Y[Aib]EGTFTSDYSILLEK([εLys-εLys-γGlu-C18 diacid])QAAREFIEWLLAGGPSSGAPPPS-OH) | 0.35** kg/L | 
CC[C@H](C)[C@H](NC(=O)[C@H](Cc1ccccc1)NC(=O)[C@H](CCC(=O)O)NC(=O)[C@H](CCCNC(=N)N)NC(=O)[C@H](C)NC(=O)[C@H](C)NC(=O)[C@H](CCC(N)=O)NC(=O)[C@H](CCCCNC(=O)[C@@H](N)CCCCNC(=O)[C@@H](N)CCCCNC(=O)CC[C@H](NC(=O)CCCCCCCCCCCCCCCCC(=O)O)C(=O)O)NC(=O)[C@H](CCC(=O)O)NC(=O)[C@H](CC(C)C)NC(=O)[C@H](Cc1ccc(O)cc1)NC(=O)[C@@H](NC(=O)[C@H](CO)NC(=O)[C@H](Cc1ccc(O)cc1)NC(=O)[C@H](CC(=O)O)NC(=O)[C@H](CO)NC(=O)[C@@H](NC(=O)[C@H](Cc1ccccc1)NC(=O)[C@@H](NC(=O)CNC(=O)[C@H](CCC(=O)O)NC(=O)C(C)(C)NC(=O)[C@@H](N)Cc1ccc(O)cc1)[C@@H](C)O)[C@@H](C)O)[C@@H](C)CC)C(=O)N[C@@H](CC(N)=O)C(=O)N[C@@H](Cc1c[nH]c2ccccc12)C(=O)N[C@@H](CC(C)C)C(=O)N[C@@H](CC(C)C)C(=O)N[C@@H](C)C(=O)NCC(=O)NCC(=O)N1CCC[C@H]1C(=O)N[C@@H](CO)C(=O)N[C@@H](CO)C(=O)NCC(=O)N[C@@H](C)C(=O)N1CCC[C@H]1C(=O)N1CCC[C@H]1C(=O)N1CCC[C@H]1C(=O)N[C@@H](CO)C(=O)O [Compound No. 11] (H-Y[Aib]EGTFTSDYSIYLEK([εLys-εLys-γGlu-C18 diacid])QAAREFINWLLAGGPSSGAPPPS-OH) | 0.19 kg/L | 7.1
CC[C@H](C)[C@H](NC(=O)[C@H](Cc1ccccc1)NC(=O)[C@H](CCC(=O)O)NC(=O)[C@H](CCC(N)=O)NC(=O)[C@H](C)NC(=O)[C@H](C)NC(=O)[C@H](CCC(N)=O)NC(=O)[C@H](CCCCNC(=O)[C@@H](N)CCCCNC(=O)[C@@H](N)CCCCNC(=O)CC[C@H](NC(=O)CCCCCCCCCCCCCCCCC(=O)O)C(=O)O)NC(=O)[C@H](CCC(=O)O)NC(=O)[C@H](CC(C)C)NC(=O)[C@H](CC(C)C)NC(=O)[C@@H](NC(=O)[C@H](CO)NC(=O)[C@H](Cc1ccc(O)cc1)NC(=O)[C@H](CC(=O)O)NC(=O)[C@H](CO)NC(=O)[C@@H](NC(=O)[C@H](Cc1ccccc1)NC(=O)[C@@H](NC(=O)CNC(=O)[C@H](CCC(=O)O)NC(=O)C(C)(C)NC(=O)[C@@H](N)Cc1ccc(O)cc1)[C@@H](C)O)[C@@H](C)O)[C@@H](C)CC)C(=O)N[C@@H](CCC(=O)O)C(=O)N[C@@H](Cc1c[nH]c2ccccc12)C(=O)N[C@@H](CC(C)C)C(=O)N[C@@H](CC(C)C)C(=O)N[C@@H](C)C(=O)NCC(=O)NCC(=O)N1CCC[C@H]1C(=O)N[C@@H](CO)C(=O)N[C@@H](CO)C(=O)NCC(=O)N[C@@H](C)C(=O)N1CCC[C@H]1C(=O)N1CCC[C@H]1C(=O)N1CCC[C@H]1C(=O)N[C@@H](CO)C(=O)O [Compound No. 29] (H-Y[Aib]EGTFTSDYSILLEK([εLys-εLys-γGlu-C18 diacid])QAAQEFIEWLLAGGPSSGAPPPS-OH) | 0.26** kg/L | 
CC[C@H](C)[C@H](NC(=O)[C@H](Cc1ccccc1)NC(=O)[C@H](CCC(=O)O)NC(=O)[C@H](CCCNC(=N)N)NC(=O)[C@H](C)NC(=O)[C@H](C)NC(=O)[C@H](CCC(N)=O)NC(=O)[C@H](CCCCNC(=O)[C@@H](N)CCCCNC(=O)[C@@H](N)CCCCNC(=O)CC[C@H](NC(=O)CCCCCCCCCCCCCCCCC(=O)O)C(=O)O)NC(=O)[C@H](CCC(=O)O)NC(=O)[C@H](CC(C)C)NC(=O)[C@H](CC(C)C)NC(=O)[C@@H](NC(=O)[C@H](CO)NC(=O)[C@H](Cc1ccc(O)cc1)NC(=O)[C@H](CC(=O)O)NC(=O)[C@H](CO)NC(=O)[C@@H](NC(=O)[C@H](Cc1ccccc1)NC(=O)[C@@H](NC(=O)CNC(=O)[C@H](CCC(=O)O)NC(=O)C(C)(C)NC(=O)[C@@H](N)Cc1ccc(O)cc1)[C@@H](C)O)[C@@H](C)O)[C@@H](C)CC)C(=O)N[C@@H](CC(N)=O)C(=O)N[C@@H](Cc1c[nH]c2ccccc12)C(=O)N[C@@H](CC(C)C)C(=O)N[C@@H](CC(C)C)C(=O)N[C@@H](C)C(=O)NCC(=O)NCC(=O)N1CCC[C@H]1C(=O)N[C@@H](CO)C(=O)N[C@@H](CO)C(=O)O [Compound No. 20] (H-Y[Aib]EGTFTSDYSILLEK([εLys-εLys-γGlu-C18 diacid])QAAREFINWLLAGGPSS-OH) | 0.21 kg/L | 
